Data on three compounds can be found in ChEMBL document CHEMBL5252612, “A novel selective estrogen receptor degrader induces cell cycle arrest in breast cancer via ERα degradation and the autophagy-lysosome pathway” (Bioorg Med Chem, 2023).

Assay [1] in a line: Anticancer activity against ER-alpha positive human LCC2 cells assessed as reduction in cell viability measured after 48 hrs by CCK8 assay. The class given is functional, cell-based. Conditions: lcc2. In general terms: Tetrazolium dyes change colour on reduction, which living cells bring about.
Assay [2] relates to T47D. Put plainly: Induction of autophagy in human T47D cells assessed as increase in LC3 protein expression by western blot analysis. Type of assay: functional, cell-based. For orientation: In western blotting, separated proteins are transferred to a membrane and probed.
Assay [3] has as its system T47D. Put plainly: Induction of autophagy in human T47D cells assessed as increase in lysosome number by LysoTracker dye based confocal microscopy. The class given is functional, cell-based.
Assay [4] relates to T47D. Put plainly: Induction of autophagy in human T47D cells assessed as increase in autophagosome number by measuring LC3 puncta formation by immunofluorescence assay. The class given is functional, cell-based.
The test system of assay [5] is MCF7. Put plainly: Antitumor activity against human MCF7 cells xenografted in BALB/c nude mouse assessed as reduction in tumor volume at 4 mg/kg, ip administered every other day by caliper analysis. Type of assay: functional, organism-based. (In general: A xenograft is tissue or cells of one species grown in another, often human tumour cells in immunodeficient mice.)

Assay [6] has as its system T47D. Put plainly: Induction of autophagy in human T47D cells assessed as downregulation of MYC protein expression incubated for 24 hrs by western blot analysis. The class given is functional, cell-based. The settings on record: dose 1-5 µM.

Calls of active or inactive are those of the source. No cut-off for these calls is given here.

Regarding `CC/C(=C(\c1ccccc1)c1ccc(OCCN(C)C)cc1)c1ccccc1` [TAMOXIFEN], in assay [1], the IC50 entry was “Not Active”. Also, the result in assay [2], in assay [3] and in assay [4] was Active.
As to `C[C@]12CC[C@@H]3c4ccc(O)cc4C[C@@H](CCCCCCCCC[S+]([O-])CCCC(F)(F)C(F)(F)F)[C@H]3[C@@H]1CC[C@@H]2O` (some centres undefined), the outcome in assay [2], in assay [5], in assay [3] and in assay [4] was Active.
For the compound `CO[C@H]1C[C@@H]2CC[C@@H](C)[C@@](O)(O2)C(=O)C(=O)N2CCCC[C@H]2C(=O)O[C@H]([C@H](C)C[C@@H]2CC[C@@H](O)[C@H](OC)C2)CC(=O)[C@H](C)/C=C(\C)[C@@H](O)[C@@H](OC)C(=O)[C@H](C)C[C@H](C)/C=C/C=C/C=C/1C`, in assay [6], the Activity result is “Dose-Dependent Effect”.
